Laboratory results: patent US11471458B2, “Diacylglycerol acyl transferase 2 inhibitor” (Pfizer Inc., priority 2019, dated 2022)

Tests used:
[1] = Determination of pKa (capillary electrophoresis, Analiza, Inc.); type: physicochemical; details: mean
[2] = Intrinsic clearance in human liver microsomes; type: in vitro ADME; details: human liver microsome assay; 1 μM test compound, 0.806 mg/mL protein, NADPH, pH 7.4, 37° C.; mean +/− STD Dev
Protocol: The incubations were conducted at 37° C. […] (Sorvall RC 3C Plus, Thermo Scientific, Waltham, Mass.).

human hepatocytes [3] = test: Intrinsic clearance in human hepatocytes (relay method); type: in vitro ADME; details: 1 μM, 20 h total incubation, mean +/− standard deviation
Protocol: For intrinsic clearance (CLint) measurement, hepatocyte relay method was used (Di, L., et al. 2012, Drug Metab. Dispos., 40, 1860-1865 and Di, L., et al. 2013, Drug Metab. Dispos., 41, 2018-2023). Cryopreserved human hepatocytes (Lot DCM from BioreclamationlVT) were used. Upon thawing, the hepatocytes were resuspended in Williams' medium E (custom formula number 91-5233EA; Gibco, Grand Island, N.Y.) supplemented with Hepes and Na2CO3. […] The plates were incubated at 37° C. with 95% air/5% CO2, 75% relative humidity for 4 h at 150 rpm in a humidified incubator. At time 0 and 4 h, 25 μL of hepatocyte suspension was removed from the incubation and added to 50 μL of ice-cold acetonitrile (containing metoprolol, indomethacin, and terfenadine as internal standards) to quench the reaction. The samples were centrifuged (Eppendorf, Hauppauge, N.Y.) at 3000 rpm (1439×g) for 10 min at room temperature, and 50 μL of supernatant was transferred to a clean plate, dried completely, and reconstituted before liquid chromatography/tandem mass spectrometry (LC-MS/MS) analysis. The remaining hepatocyte suspensions in the incubation plate were centrifuged (3000 rpm, 1439×g, 10 min, room temperature). The supernatant of 300 μL was transferred to a clean 24-well plate and stored at −80° C. until the next relay experiment. For the second relay experiment, the supernatant plates were warmed first to room temperature for 30 minutes, then to 37° C. for 30 min, and hepatocytes were added to the samples to give a final cell density of 0.5 million cells/mL. The plates were incubated at 37° C. for 4 h, sampled, and processed as described above. Five relays were performed to give a total incubation time of 20 h, with sampling points at (0, 4, 8, 12, 16 and 20 h). The concentrations of test compound determined at each time point by the LC-MS/MS analysis were used to calculate the intrinsic clearance.

human hepatocytes [4] = test: High throughput determination of intrinsic clearance in human hepatocytes; type: in vitro ADME; details: high throughput human hepatocyte assay; 0.5 million cells/mL, 1 μM test compound, 37° C.; mean +/− Std Dev
Protocol: The incubation was carried out at 37° C. […] The samples were centrifuged (Eppendorf, Hauppauge, N.Y.) at 3000 rpm for 5 min at 4° C.

CCOc1cccnc1Oc1cncc(-c2ncc(C(=O)NC3(CO)CCOC3)cn2)c1 (single isomer, unassigned) [WO2018033832 Ex. 6b]
Basic pKa (most basic pKa) [1]: 2.4
CLint (μL/min/mg) (+/− STD Dev) [2]: <11 ± 3.5 µL/min/mg
CLint (+/− Std Dev), relay hepatocyte assay (human hepatocytes [3]): 2.9 +/− 0.057 μL/min/million cells
CLint (μL/min/10^6 cells) (+/− Std Dev) (human hepatocytes [4]): <3.3 +/− 0.49 μL/min/10^6 cells
